Patent US7638624B2, “Compositions and methods relating to novel benzodiazepine compounds and derivatives” (The Regents of the University of Michigan, priority 2005, dated 2009)
pIC50: −log10 of the molar value.

Columns and labels:
F1F0-ATPase = F1F0-ATPase inhibition; cited from earlier work
Ramos cells [1] = assay: Detection of cell death in Ramos cells, viability by propidium iodide staining; type: cell-based; conditions: 24 hours, 2% FBS, PI 1 μg/mL, FIG. 1
Procedure: (§1) Ramos cells were exposed to the following compounds:
Cell viability was assessed by staining with propidium iodide (PI, 1 μg/mL).

Ramos cells [2] = assay: Ramos cells exposed to compounds, O2- detected with dihydroethidium (DHE); type: cell-based; conditions: 1 hour, 2% FBS, FIG. 2
Procedure: as §1
To detect O2^−, cells were incubated with dihydroethidium (DHE).

CC[C@H]1/C=C/C=C/C[C@@H](C)[C@H](O)[C@@](C)(O)C(=O)[C@@H](C)[C@H](O)[C@@H](C)C(=O)[C@@H](C)[C@H](O)[C@@H](C)/C=C/C(=O)O[C@@H]2[C@H](C)[C@H](CC1)O[C@]1(CC[C@H](C)[C@H](C[C@@H](C)O)O1)[C@H]2C [oligomycin]
pIC50 (F1F0-ATPase): 8.00

CC1CN(c2ccc(O)cc2)c2cc(Cl)ccc2N(Cc2ccc3ccccc3c2)C1=O (stereo not drawn) [GD-423]
cellular death (cell viability by propidium iodide staining) (Ramos cells [1]): causes cell death | cellular death (O2- detection with dihydroethidium) (Ramos cells [2]): causes cell death
